Read-outs that look alike come from different tables or passages of the source.
Legend:
Sprague-Dawley rats [1] = test: animal or person; type: in vivo; details: rats; for ED50: LORR, up and down method, tail vein, class symbols
From the text: Evaluating indicator: The end point of anesthesia: LORR was used as the end point of anesthesia; General anesthesia effect: the disappearance of forepaw righting reflex in rats lasting for 30 seconds is taken as the index of general anesthesia effect; Anesthesia recovery index: the recovery of rat forepaw righting reflex was used as the index of anesthesia recovery.

Sprague-Dawley rats [2] = test: Pharmacological effect and adverse reactions under the equivalent dose (2ED50), Group C compounds; type: in vivo; details: for Righting reflex duration / Sedation duration / Onset time: 2ED50, tail vein, rats, n=8; for Adverse reaction: Convulsions / Adverse reaction: Cough, broken-winded / Adverse reaction: Euphoria / Adverse reaction: Red urine / Adverse reaction: Slower breathing, Tetany convulsion / Adverse reaction: Systemic stiffness, Convulsions, Opisthotonus / Adverse reaction: Tongue stretching / Adverse reaction: Tremor / Adverse reaction: the four limbs rigidity: equivalent dose (2ED50), number of rats of n = 8
From the text: Evaluation index: onset time: from the completion of drug injection to the disappearance of forepaw righting reflex in rats; Duration of anesthesia: the time from the disappearance of rat forepaw righting reflex to the recovery of rat forepaw righting reflex; Recovery time of anesthesia: the time from the […] to complete recovery;

SD rats = details: for After the infusion is stopped: Righting reflex recovery time / Recovery time after stopping infusion: after 1 hour continuous infusion at 2 times the MIR; for After the infusion is stopped: Righting reflex recovery time / Recovery time after stopping infusion / Sedation onset time: SD rats; for Types and incidence of adverse reactions: Red urine / Types and incidence of adverse reactions: Tremor / Types and incidence of adverse reactions: Tongue stretching: continuous infusion 2 x MIR 1 hour, rats affected/rats; for Sedation onset time: continuous tail vein infusion at 2 times the MIR
Protocol: Experimental Methods: Adult male SD rats with body weight ranging from 250 g to 350 g were selected for continuous infusion test.
Evaluation indexes: the time from the beginning of continuous infusion to the […] of sedation in rats; the time from the cessation of infusion to the restoration of the forepaw turning reflex after 1 hour of continuous infusion; the time from the cessation of infusion to the complete restoration of rats after 1 hour of continuous infusion.

Sprague-Dawley rats [3] = type: in vivo; details: tail vein
[4] = Rattus norvegicus, read-out: ED50

Structure (SMILES)	ED50 (Sprague-Dawley rats [1]; [4]) [mg/kg]	Approximate therapeutic index (Sprague-Dawley rats [1])	Righting reflex duration (Sprague-Dawley rats [2]) [min]	Sedation duration (Sprague-Dawley rats [2]) [min]	Onset time (Sprague-Dawley rats [2]; unit s) [s]	Adverse reaction: Convulsions (Sprague-Dawley rats [2])	Adverse reaction: Cough, broken-winded (Sprague-Dawley rats [2])	Adverse reaction: Euphoria (Sprague-Dawley rats [2])	Adverse reaction: Red urine (Sprague-Dawley rats [2])	Adverse reaction: Slower breathing, Tetany convulsion (Sprague-Dawley rats [2])	Adverse reaction: Systemic stiffness, Convulsions, Opisthotonus (Sprague-Dawley rats [2])	Adverse reaction: Tongue stretching (Sprague-Dawley rats [2])	Adverse reaction: Tremor (Sprague-Dawley rats [2])	Adverse reaction: the four limbs rigidity (Sprague-Dawley rats [2])	Minimal lethal dose (Sprague-Dawley rats [3]) [mg/kg]	Onset time (Sprague-Dawley rats [2]; unit min) [s]	also measured
C[C@H](c1ccccc1)n1cncc1C(=O)COCCC1CCC1 [Compound C40]	0.5 to 1	>13.8	3.76 ± 1.75	10.48 ± 2.58	<30	1	0	0	8	1	1	0	0	0	>8.3		After the infusion is stopped: Righting reflex recovery time (SD rats): 16 to 20 min; Recovery time after stopping infusion (SD rats): 27 to 35 min; Types and incidence of adverse reactions: Red urine (SD rats): 6/6; Types and incidence of adverse reactions: Tremor (SD rats): 2/6; Sedation onset time (SD rats): <5 min
C[C@H](c1ccccc1)n1cnc(F)c1C(=O)COCCC1CCC1 [Compound C74]	0.04 to 0.5	>42.9	1.37 ± 0.63	5.68 ± 1.10		0	0	0	8	0	0	0	1	0	>6.0	<60	After the infusion is stopped: Righting reflex recovery time (SD rats): 13 to 18 min; Recovery time after stopping infusion (SD rats): 18 to 24 min; Types and incidence of adverse reactions: Red urine (SD rats): 6/6; Types and incidence of adverse reactions: Tongue stretching (SD rats): Tongue stretching(4/6); Types and incidence of adverse reactions: Tremor (SD rats): 4/6; Sedation onset time (SD rats): <5 min
C[C@H](c1ccccc1)n1cncc1C(=O)COC1CCC1 [Compound C28]		>2.4	1.91 ± 0.65	5.63 ± 0.62	<30	0	0	0	8	0	0	0	1	0	>11.8		
C/C=C\C(=O)c1cncn1[C@H](C)c1ccccc1 [Compound C55]	2 to 10	>16.6	1.83 ± 0.30	6.26 ± 2.45	<30	0	0	0	8	0	7	0	0	0	>13.61		
CC#CCC(=O)c1cncn1[C@H](C)c1ccccc1 [Compound C57]	2 to 10	>16.6	1.89 ± 0.29	6.12 ± 1.14		0	0	0	8	0	0	2	1	0	>13.61	<60	
CCC(CC)OCC(=O)c1c(F)ncn1[C@H](C)c1ccccc1 [Compound C78]	0.5 to 1	>14.3	2.59 ± 0.99	7.30 ± 1.85	<30	0	0	0	8	0	0	1	0	1	>11.5		
CCOCC(=O)c1cncn1[C@H](C)c1ccccc1 [Compound C34]	2 to 10	>2.6	2.26 ± 0.81	4.89 ± 0.98	<30	0	0	1	8	0	6	1	0	0	>12.8		After the infusion is stopped: Righting reflex recovery time (SD rats): 15 to 20 min; Recovery time after stopping infusion (SD rats): 22 to 28 min; Types and incidence of adverse reactions: Red urine (SD rats): 6/6; Types and incidence of adverse reactions: Tongue stretching (SD rats): Tongue stretching(4/6); Types and incidence of adverse reactions: Tremor (SD rats): 2/6; Sedation onset time (SD rats): <5 min
C#CCOCC(=O)c1c(F)ncn1[C@H](C)c1ccccc1 [Compound C73]	0.04 to 0.5	>23.4	1.24 ± 0.56	6.76 ± 1.49	<30	0	0	0	8	0	2	0	0	1	>4.0		
CC#CCOCC(=O)c1cc(F)nn1[C@H](C)c1ccccc1 [Compound C14]		>6.0	1.38 ± 0.47	9.03 ± 1.58		0	0	1	8	0	0	0	1	0	>14.5	<60	ED50 (Sprague-Dawley rats [1]): ++++ (++++ indicates that the measured ED50 is in the range of 2.00-10.00 mg/kg (excluding 2.00 mg/kg, including 6.00 mg/kg))
COCC(=O)c1cncn1[C@H](C)c1ccccc1 [Compound C33]		>2.8	1.62 ± 0.85	4.43 ± 0.92	<30	0	0	0	8	0	0	0	1	0	>14.2		
CC#CCOCC(=O)c1c(F)ncn1[C@H](C)c1ccccc1 [Compound C69]	0.04 to 0.5	>19.2	1.91 ± 0.68	6.28 ± 1.62	<30	0	0	0	8	0	1	0	0	0	>4.2		
CC1OC1C(=O)c1cncn1[C@H](C)c1ccccc1 (stereo partly drawn) [Compound C56]	2 to 10	>16.6	1.49 ± 0.62	5.32 ± 1.21		0	0	0	8	0	0	1	1	0	>13.61	<60	

Source: US12570612B2, “Substituted nitrogen heterocyclic compound and anesthetic effect thereof” (priority 2019, dated 2026)
